According to article PMC6017873 (Molecules : A Journal of Synthetic Chemistry and Natural …, 2018):

Experiments:
Assay type in all cases: biochemical
[1] = target: HDAC2 (Homo sapiens, UniProt Q92769); test: Selective in vitro HDAC activity assay, recombinant HDAC2; details: 100 µM
Method: (§1) (a) In vitro total HDAC activity was evaluated using K-562 nuclear extracts in the presence of various concentrations of eurochevalierine. (b) Selective in vitro HDAC activity assays were carried out using selected recombinant HDAC proteins in the presence of various concentrations of eurochevalierine. Results are reported as percent of DMSO vehicle control and expressed as the mean ± SD of three independent experiments. * and ** indicate p < 0.05 and p < 0.01 versus untreated cells, respectively.

[2] = target: T1, HDAC6 (Homo sapiens, UniProt Q9UBN7); test: Selective in vitro HDAC activity assay, recombinant HDAC6
T1 sequence (Q9UBN7 1-1215): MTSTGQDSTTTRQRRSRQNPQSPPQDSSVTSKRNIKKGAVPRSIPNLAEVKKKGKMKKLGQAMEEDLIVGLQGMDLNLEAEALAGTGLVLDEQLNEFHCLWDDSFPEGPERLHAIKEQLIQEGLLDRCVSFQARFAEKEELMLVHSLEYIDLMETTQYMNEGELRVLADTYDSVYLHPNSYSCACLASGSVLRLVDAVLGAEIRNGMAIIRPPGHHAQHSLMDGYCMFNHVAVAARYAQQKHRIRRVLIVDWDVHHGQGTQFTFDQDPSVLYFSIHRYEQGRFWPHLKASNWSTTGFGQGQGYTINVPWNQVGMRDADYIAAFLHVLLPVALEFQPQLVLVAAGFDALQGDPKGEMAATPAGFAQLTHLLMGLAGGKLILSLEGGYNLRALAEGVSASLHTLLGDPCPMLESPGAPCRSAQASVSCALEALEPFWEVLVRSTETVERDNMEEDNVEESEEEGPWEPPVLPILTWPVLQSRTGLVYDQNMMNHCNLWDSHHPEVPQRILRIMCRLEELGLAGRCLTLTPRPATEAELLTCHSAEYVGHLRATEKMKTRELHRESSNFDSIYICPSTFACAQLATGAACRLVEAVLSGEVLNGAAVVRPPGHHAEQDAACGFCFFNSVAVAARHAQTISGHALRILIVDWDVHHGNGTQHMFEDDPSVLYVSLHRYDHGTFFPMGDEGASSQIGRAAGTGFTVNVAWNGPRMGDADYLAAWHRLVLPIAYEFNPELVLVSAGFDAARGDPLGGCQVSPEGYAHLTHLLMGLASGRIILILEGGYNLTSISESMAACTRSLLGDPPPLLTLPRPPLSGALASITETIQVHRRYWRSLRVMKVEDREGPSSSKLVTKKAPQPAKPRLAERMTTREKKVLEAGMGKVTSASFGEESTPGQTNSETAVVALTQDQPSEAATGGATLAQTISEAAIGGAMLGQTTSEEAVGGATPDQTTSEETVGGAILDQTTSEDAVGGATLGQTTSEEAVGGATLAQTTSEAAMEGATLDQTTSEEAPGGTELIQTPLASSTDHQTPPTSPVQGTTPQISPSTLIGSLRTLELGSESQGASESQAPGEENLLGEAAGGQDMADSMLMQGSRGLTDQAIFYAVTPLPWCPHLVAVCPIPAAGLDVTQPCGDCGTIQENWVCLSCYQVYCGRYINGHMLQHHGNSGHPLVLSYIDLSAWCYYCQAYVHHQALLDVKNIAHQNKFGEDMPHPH
Method: as §1

[3] = target: T2, HDAC11 (Homo sapiens, UniProt Q96DB2); test: Selective in vitro HDAC activity assay, recombinant HDAC11
T2 sequence (Q96DB2 1-347): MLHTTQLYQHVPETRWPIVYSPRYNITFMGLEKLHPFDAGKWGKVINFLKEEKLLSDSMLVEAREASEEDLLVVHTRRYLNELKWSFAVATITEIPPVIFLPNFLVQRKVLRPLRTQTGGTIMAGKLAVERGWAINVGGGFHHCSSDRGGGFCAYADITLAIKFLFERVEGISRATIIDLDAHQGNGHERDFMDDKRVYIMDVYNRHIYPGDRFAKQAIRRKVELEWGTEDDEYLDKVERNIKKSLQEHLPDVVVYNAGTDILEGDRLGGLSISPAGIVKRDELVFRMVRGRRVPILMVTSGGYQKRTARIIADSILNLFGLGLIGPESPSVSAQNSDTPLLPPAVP
Method: as §1

Chain of HDAC2 (Q92769 whole entry): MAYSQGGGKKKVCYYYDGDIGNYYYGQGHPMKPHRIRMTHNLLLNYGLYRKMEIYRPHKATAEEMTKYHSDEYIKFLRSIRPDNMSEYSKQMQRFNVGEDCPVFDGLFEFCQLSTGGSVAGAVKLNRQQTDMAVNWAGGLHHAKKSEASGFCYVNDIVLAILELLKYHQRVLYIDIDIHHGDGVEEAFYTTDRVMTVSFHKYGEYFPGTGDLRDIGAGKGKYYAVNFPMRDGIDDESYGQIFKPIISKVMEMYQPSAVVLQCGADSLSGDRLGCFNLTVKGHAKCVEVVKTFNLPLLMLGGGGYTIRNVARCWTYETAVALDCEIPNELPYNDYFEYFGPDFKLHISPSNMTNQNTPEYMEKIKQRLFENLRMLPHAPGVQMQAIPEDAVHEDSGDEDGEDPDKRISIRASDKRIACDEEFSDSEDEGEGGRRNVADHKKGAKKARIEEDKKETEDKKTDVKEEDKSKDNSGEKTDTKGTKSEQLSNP

For C=C(C)[C@@H]1CC[C@@H](C)[C@@]2(O)[C@@H]1C=C(C)[C@@H](OC(C)=O)[C@@H]2OC(=O)[C@H](CC(=O)c1ccccc1NC)NC=O [Eurochevalierine, eurochevalierine], the “effect on HDAC2 deacetylase activity” value [1] was “without effect”, the inhibition at 100 µM [2] was roughly 36% and the inhibition at 100 µM [3] was roughly 51%.
